# Results published in patent US4898940A (priority 1989, dated 1990).
# Key:
# [1] = test system: Lymphocytic leukemia P388; test: Antitumor activity against P388 leukemia in mice; format: in vivo, CDF1 and BDF1 mice; details: for T/C % of MST: P388 leukemia; for antitumor activity against P388 leukemia (in words): ip
# Description: (§1) Lymphocytic leukemia P388 (CDF1 and BDF1 mice) and lymphoid leukemia L1210 (BDF1 mice) were inoculated by intraperitoneal injection of 0.8 ml diluted ascitic fluid containing 10^6 and 10^5 cells per mouse, respectively. Melanotic melanoma B16 (BDF1 mice) were implanted 0.5 ml of a 10% tumor brei intraperitoneally. Test materials were dissolved in 0.9% saline containing 10% dimethyl sulfoxide and graded doses of them were administered to mice intraperitoneally 24 hours after tumor implantation. Either olivomycin (NSC 38270) or mitomycin C was comparatively tested as a reference compound in the experiments.
# Values for percentage ratios of 125 and above indicate significant antitumor effect.
# [2] = test system: lymphoid leukemia L1210; test: Antitumor activity against L1210 leukemia in mice; format: in vivo, BDF1 mice; details: for T/C % of MST: L1210 leukemia, BDF1 mice
# Description: as §1
# [3] = test system: Melanotic melanoma B16; test: Antitumor activity against B16 melanoma in mice; format: in vivo, BDF1 mice; details: for T/C % of MST: B16 melanoma, BDF1 mice
# Description: as §1
# [4] = Solubility in solvents; format: physicochemical
# [5] = Acute toxicity, single intraperitoneal administration; details: male ddY mice
# [6] = test system: gram-positive and gram-negative bacteria; test: In vitro antibacterial activity; format: cell-based; details: at 50 mcg/ml
# Text: (§2) Nutrient agar (Eiken) was used for bacteria and Sabouraud dextrose agar (Difco) for fungi. The inoculum size was adjusted to 10^4 CFU/ml for bacteria and 10^5 -10^7 CFU/ml for fungi.
# [7] = test system: pathogenic fungi such as Candida albicans, Cryptococcus neoformans, Aspergillus fumigatus, Trichlophyton mentagrophytes and Mucor spinosus; test: In vitro antifungal activity; format: cell-based; details: clinically important pathogenic fungi
# Text: as §2
# [8] = test system: Micrococcus luteus; test: MIC, serial agar dilution (nutrient agar); format: cell-based; details: Micrococcus luteus PCI-1001
# Text: as §2
# [9] = test system: Klebsiella pneumoniae; test: MIC, serial agar dilution (nutrient agar); format: cell-based; details: Klebsiella pneumoniae D-11
# Text: as §2
# [10] = test system: Bacillus subtilis; test: MIC, serial agar dilution (nutrient agar); format: cell-based; details: Bacillus subtilis PCI-219
# Text: as §2
# [11] = test system: Staphylococcus epidermidis; test: MIC, serial agar dilution (nutrient agar); format: cell-based
# Text: as §2
# [12] = test system: Proteus vulgaris; test: MIC, serial agar dilution (nutrient agar); format: cell-based; details: Proteus vulgaris A9436
# Text: as §2
# [13] = test system: Escherichia coli; test: MIC, serial agar dilution (nutrient agar); format: cell-based; details: Escherichia coli NIHJ
# Text: as §2
# [14] = test system: Pseudomonas aeruginosa; test: MIC, serial agar dilution (nutrient agar); format: cell-based; details: Pseudomonas aeruginosa A9930
# Text: as §2
# [15] = test system: Staphylococcus aureus; test: MIC, serial agar dilution (nutrient agar); format: cell-based
# Text: as §2
# [16] = test system: Enterobacter cloacae; test: MIC, serial agar dilution (nutrient agar); format: cell-based; details: Enterobacter cloacae A9659
# Text: as §2
# [17] = test system: Serratia marcescens; test: MIC, serial agar dilution (nutrient agar); format: cell-based; details: Serratia marcescens A20222
# Text: as §2
# [18] = test system: Proteus mirabilis; test: MIC, serial agar dilution (nutrient agar); format: cell-based; details: Proteus mirabilis A9554
# Text: as §2
# [19] = test system: Morganella morganii; test: MIC, serial agar dilution (nutrient agar); format: cell-based; details: Morganella morganii A9553
# Text: as §2
# [20] = test system: Streptococcus faecalis; test: MIC, serial agar dilution (nutrient agar); format: cell-based; details: Streptococcus faecalis A9612
# Text: as §2
# [21] = test system: Piricularia oryzae; format: cell-based; details: Piricularia oryzae D 91; Sabouraud dextrose agar
# [22] = test system: Cryptococcus neoformans; test: MIC, serial agar dilution (Sabouraud dextrose agar); format: cell-based
# Text: as §2
# [23] = test system: Aspergillus fumigatus; test: as above; format: cell-based
# Text: as §2
# [24] = test system: Petriellidium boydii; test: as above; format: cell-based; details: Petriellidium boydii IFO 8073
# Text: as §2
# [25] = test system: Fusarium moniliforme; test: as above; format: cell-based; details: Fusarium moniliforme A 2284
# Text: as §2
# [26] = test system: Aspergillus flavus; test: as above; format: cell-based; details: Aspergillus flavus FA 21436
# Text: as §2
# [27] = test system: Blastomyces dermaditis; test: as above; format: cell-based; details: Blastomyces dermaditis IFO 8144
# Text: as §2
# [28] = test system: Mucor spinosus; test: as above; format: cell-based; details: Mucor spinosus IFO 5317
# Text: as §2
# [29] = test system: Trichophyton mentagrophytes; test: as above; format: cell-based
# Text: as §2
# [30] = test system: Sporothrix schenckii; test: as above; format: cell-based; details: Sporothrix schenckii IFO 8158
# Text: as §2
# [31] = test system: Candida albicans; test: as above; format: cell-based
# Text: as §2
compound,measurement,setting,value
CCCCCCC/C=C/C=C/C(=O)N[C@H](C(=O)N[C@H]1C[C@@H](O)CCNC(=O)/C=C/[C@H](C)NC1=O)[C@@H](C)O [BU-2867T A],T/C % of MST,"[1]; 0.031 mg/kg/day ip, schedule 2 (once daily on days 1 through 9)",109%
same,T/C % of MST,"[1]; 0.063 mg/kg/day ip, schedule 2 (once daily on days 1 through 9)",136%
same,T/C % of MST,"[1]; 0.1 mg/kg/day ip, schedule 1 (once daily on days 1, 4 and 7)",120%
same,T/C % of MST,"[1]; 0.13 mg/kg/day ip, schedule 2 (once daily on days 1 through 9)",147%
same,T/C % of MST,"[1]; 0.25 mg/kg/day ip, schedule 2 (once daily on days 1 through 9)",156%
same,T/C % of MST,"[1]; 0.3 mg/kg/day ip, schedule 1 (once daily on days 1, 4 and 7)",130%
same,T/C % of MST,"[1]; 0.5 mg/kg/day ip, schedule 2 (once daily on days 1 through 9)",186%
same,T/C % of MST,"[1]; 1 mg/kg/day ip, schedule 1 (once daily on days 1, 4 and 7)",140%
same,T/C % of MST,"[1]; 1 mg/kg/day ip, schedule 2 (once daily on days 1 through 9)",228%
same,T/C % of MST,"[1]; 2 mg/kg/day ip, schedule 2 (once daily on days 1 through 9)",67%
same,antitumor activity against P388 leukemia (in words),"[1]; treatment schedule 1 (once daily on days 1, 4 and 7)",showed antitumor activity
same,antitumor activity against P388 leukemia (in words),[1]; treatment schedule 2 (once daily on days 1 through 9),highly active
same,T/C % of MST,[2]; 0.063 mg/kg/day ip,106%
same,T/C % of MST,[2]; 0.13 mg/kg/day ip,118%
same,T/C % of MST,[2]; 0.25 mg/kg/day ip,118%
same,T/C % of MST,[2]; 0.5 mg/kg/day ip,129%
same,antitumor activity against L1210 leukemia (in words),[2]; compared with P388,less active
same,T/C % of MST,[3]; 0.25 mg/kg/day ip,113%
same,T/C % of MST,[3]; 0.5 mg/kg/day ip,116%
same,T/C % of MST,[3]; 1 mg/kg/day ip,125%
same,T/C % of MST,[3]; 2 mg/kg/day ip,Tox.
same,antitumor activity against B16 melanoma (in words),[3]; compared with P388,less active
same,"solubility in chloroform, acetonitrile and ethyl acetate",[4],slightly soluble
same,"solubility in methanol, ethanol, n-butanol and dimethyl sulfoxide",[4],readily soluble
same,solubility in n-hexane and water,[4],practically insoluble
same,LD50,[5],8.1 mg/kg
same,growth inhibition of gram-positive and gram-negative bacteria (in words),[6],did not inhibit the growth
same,antifungal activity (in words),[7],somewhat less active than component C
same,MIC,[8],> 50 µg/mL
same,MIC,[9],> 50 µg/mL
same,MIC,[10],> 50 µg/mL
same,MIC,[11]; Staphylococcus epidermidis A22152,> 50 µg/mL
same,MIC,[11]; Staphylococcus epidermidis D153,> 50 µg/mL
same,MIC,[12],> 50 µg/mL
same,MIC,[13],> 50 µg/mL
same,MIC,[14],> 50 µg/mL
same,MIC,[15]; Staphyloccus aureus Bx-1633,> 50 µg/mL
same,MIC,[15]; Staphylococcus aureus 209P,> 50 µg/mL
same,MIC,[15]; Staphylococcus aureus Smith,> 50 µg/mL
same,MIC,[16],> 50 µg/mL
same,MIC,[17],> 50 µg/mL
same,MIC,[18],> 50 µg/mL
same,MIC,[19],> 50 µg/mL
same,MIC,[20],> 50 µg/mL
same,MIC,[21],> 50 µg/mL
same,MIC,[22]; Cryptococcus neoformans D 49,25 µg/mL
same,MIC,[22]; Cryptococcus neoformans IAM 4514,25 µg/mL
same,MIC,[23]; Aspergillus fumigatus IAM 2034,1.6 µg/mL
same,MIC,[23]; Aspergillus fumigatus IAM 2530,1.6 µg/mL
same,MIC,[24],> 50 µg/mL
same,MIC,[25],> 50 µg/mL
same,MIC,[26],25 µg/mL
same,MIC,[27],50 µg/mL
same,MIC,[28],1.6 µg/mL
same,MIC,[29]; Trichophyton mentagrophytes #4329,25 µg/mL
same,MIC,[29]; Trichophyton mentagrophytes D 155,25 µg/mL
same,MIC,[30],> 50 µg/mL
same,MIC,[31]; Candida albicans A 9540,1.6 µg/mL
same,MIC,[31]; Candida albicans IAM 4888,3.1 µg/mL
